Read-outs that look alike come from different tables or passages of the source.
Target: hPK, M2 (Homo sapiens, UniProt P14618)
Assay: luminescent pyruvate kinase-luciferase coupled assay (qHTS)
Type: biochemical
Settings: mean of three replicate experiments; for AC50: 0.1 mM ADP, 0.5 mM PEP, read-out: hPK, M2 AC50; for activation at 57 µM: % activation at 57 μM of compound, read-out: hPK, M2 Max. Res.
Description: AC50 values were determined utilizing the luminescent pyruvate kinase-luciferase coupled assay (Inglese, J. et al, Quantitative high-throughput screening: a titration-based approach that efficiently identifies biological activities in large chemical libraries. Proc. Natl. Acad. Sci. U.S.A. 2006, 103, 11473-11478).
Luminescent Pyruvate Kinase-Luciferase Coupled Assay.
Production of a luminescent signal based on the generation of ATP by pyruvate kinase was determined by using the ATP-dependent enzyme firefly luciferase. Three μL of substrate mix (at r.t.) in assay buffer (50 mM imidazole pH 7.2, 50 mM KCl, 7 mM MgCl2, 0.01% tween 20, 0.05% BSA) was dispensed into Kalypsys (San Diego, Calif., USA) white solid bottom 1,536 well microtiter plates using a bottle-valve solenoid-based dispenser (Kalypsys). The final concentrations of substrates in the assay were 0.1 mM ADP and 0.5 mM PEP. Twenty-three nL of compound in DMSO were delivered with a 1,536-pin array tool, and 1 μL of enzyme mix in assay buffer (final concentration, 0.1 nM pyruvate kinase, 50 mM imidazole pH 7.2, 0.05% BSA, 4° C.) was added. Microtiter plates were incubated at r.t. for 1 hour and 2 uL of luciferase detection mix (Kinase-Glo from Promega, Madison, Wis., USA) at 4° C. protected from light, was added and luminescence was read with a ViewLux (Perkin Elmer, Waltham, Mass., USA) using a 2 second exposure/plate (with 2× binning). The final concentration of DMSO was 0.5% and found not to affect the assay signal.
Data was normalized for AC50 values to control columns containing uninhibited enzyme (n), and AC100 inhibition (i) according the following equation: Activation (%)=[(c−n)/(n−i)]*100 where c=compound, n=DMSO neutral, i=no enzyme control. A % activity of 100% is approximately a 2-fold increase over basal assay signal (% Activation by FBP was variable but averaged 100%). Monitoring of activation was accomplished using enzyme at 3× the final concentration.
All compounds were screened using a qHTS approach, where compounds are assayed using at least seven concentrations to generate concentration-response curves for every compounds. Briefly, qHTS uses an inter-plate dilution method where the first plate contains the highest concentration of a set of compounds in DMSO, while subsequent plates contain the same compounds in the same well locations, but at successive lower concentrations. Using the protocol outlined above, the rate was calculated as a plate throughput of 18 plates/hr or approximately 7 samples/sec on the Kalypsys robotic system which means that a 7 point CRC was obtained every second on the robotic system.

Sequence of hPK, M2 (P14618 whole entry): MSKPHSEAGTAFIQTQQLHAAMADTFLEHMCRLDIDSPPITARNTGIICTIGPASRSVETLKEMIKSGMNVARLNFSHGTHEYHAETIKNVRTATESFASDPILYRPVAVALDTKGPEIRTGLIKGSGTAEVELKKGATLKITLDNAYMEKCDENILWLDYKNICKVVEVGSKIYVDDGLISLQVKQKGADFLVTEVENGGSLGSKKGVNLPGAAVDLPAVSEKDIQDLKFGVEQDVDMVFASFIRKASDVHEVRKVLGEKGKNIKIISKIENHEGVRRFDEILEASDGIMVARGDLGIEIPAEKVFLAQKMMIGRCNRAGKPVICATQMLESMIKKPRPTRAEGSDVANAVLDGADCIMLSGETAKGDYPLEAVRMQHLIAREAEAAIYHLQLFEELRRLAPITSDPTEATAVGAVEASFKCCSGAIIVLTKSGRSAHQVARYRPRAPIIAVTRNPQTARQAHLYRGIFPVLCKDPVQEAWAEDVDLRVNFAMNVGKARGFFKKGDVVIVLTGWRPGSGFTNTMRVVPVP

Row | SMILES | AC50 (Table 2) | activation at 57 µM (Table 2) | other results
1 | Cc1ccc(NS(=O)(=O)c2ccc3c(c2)CC(=O)N3)cc1C [Compound 5, N-(3,4-dimethylphenyl)-2-oxoindoline-5-sulfonamide] |  |  | AC50 (Table 1): 14.5 µM; activation at 57 µM (Table 1): 130%
2 | Cc1ccc(NS(=O)(=O)c2ccc3c(c2)CCCC(=O)N3)cc1C [Compound 6, N-(3,4-dimethylphenyl)-2-oxo-2,3,4,5-tetrahydro-1H-benzo[b]azepine-7-sulfonamide] |  |  | AC50 (Table 1): 18 µM; activation at 57 µM (Table 1): 66%
3 | Cc1ccc(NS(=O)(=O)c2ccc3c(c2)NC(=O)CO3)cc1C [Compound 7, N-(3,4-dimethylphenyl)-3-oxo-3,4-dihydro-2H-benzo[b][1,4]oxazine-6-sulfonamide] |  |  | AC50 (Table 1): 20 µM; activation at 57 µM (Table 1): 93%
4 | Cc1ccc(NS(=O)(=O)c2ccc3c(c2)N(C)C(=O)CO3)cc1C [Compound 8, N-(3,4-dimethylphenyl)-4-methyl-3-oxo-3,4-dihydro-2H-benzo[b][1,4]oxazine-6-sulfonamide] |  |  | AC50 (Table 1): 0.92 µM; activation at 57 µM (Table 1): 120%
5 | Cc1ccc(NS(=O)(=O)c2ccc3[nH]c(=O)[nH]c3c2)cc1C [Compound 9, N-(3,4-dimethylphenyl)-2-oxo-2,3-dihydro-1H-benzo[d]imidazole-5-sulfonamide] |  |  | AC50 (Table 1): 21 µM; activation at 57 µM (Table 1): 59%
6 | Cc1ccc(NS(=O)(=O)c2ccc3c(c2)n(C)c(=O)n3C)cc1C [Compound 10, N-(3,4-dimethylphenyl)-1,3-dimethyl-2-oxo-2,3-dihydro-1H-benzo[d]imidazole-5-sulfonamide] |  |  | AC50 (Table 1): 1.8 µM; activation at 57 µM (Table 1): 100%
7 | CC(=O)N1CCc2cc(S(=O)(=O)Nc3ccc(C)c(C)c3)ccc21 [Compound 11, 1-acetyl-N-(3,4-dimethylphenyl)indoline-5-sulfonamide] |  |  | AC50 (Table 1): 1.8 µM; activation at 57 µM (Table 1): 65%
8 | Cc1ccc(NS(=O)(=O)c2ccc3c(ccn3C)c2)cc1C [Compound 12, N-(3,4-dimethylphenyl)-1-methyl-1H-indole-5-sulfonamide] |  |  | AC50 (Table 1): 20 µM; activation at 57 µM (Table 1): 40%
9 | O=C1CCc2cc(S(=O)(=O)Nc3cccc(Cl)c3)ccc2N1 [Compound 13, N-(3-chlorophenyl)-2-oxo-1,2,3,4-tetrahydroquinoline-6-sulfonamide] | 0.65 µM | 100% | 
10 | Cc1cccc(NS(=O)(=O)c2ccc3c(c2)CCC(=O)N3)c1 [Compound 14, 2-oxo-N-m-tolyl-1,2,3,4-tetrahydroquinoline-6-sulfonamide] | 1.2 µM | 99% | 
11 | COc1cccc(NS(=O)(=O)c2ccc3c(c2)CCC(=O)N3)c1 [Compound 15, N-(3-methoxyphenyl)-2-oxo-1,2,3,4-tetrahydroquinoline-6-sulfonamide] | 3.2 µM | 91% | 
12 | O=C1CCc2cc(S(=O)(=O)Nc3cccc(F)c3)ccc2N1 [Compound 16, N-(3-fluorophenyl)-2-oxo-1,2,3,4-tetrahydroquinoline-6-sulfonamide] | 1.8 µM | 93% | 
13 | O=C1CCc2cc(S(=O)(=O)Nc3cccc(C(F)(F)F)c3)ccc2N1 [Compound 17, 2-oxo-N-(3-(trifluoromethyl)phenyl)-1,2,3,4-tetrahydroquinoline-6-sulfonamide] | 13 µM | 96% | 
14 | O=C1CCc2cc(S(=O)(=O)Nc3cccc(-c4ccccc4)c3)ccc2N1 [Compound 18, N-(biphenyl-3-yl)-2-oxo-1,2,3,4-tetrahydroquinoline-6-sulfonamide] | 14 µM | 13% | 
15 | O=C1CCc2cc(S(=O)(=O)Nc3cccnc3)ccc2N1 [Compound 19, 2-oxo-N-(pyridin-3-yl)-1,2,3,4-tetrahydroquinoline-6-sulfonamide] | 23 µM | 36% | 
16 | O=C1CCc2cc(S(=O)(=O)Nc3ccc(Cl)cc3)ccc2N1 [Compound 20, N-(4-chlorophenyl)-2-oxo-1,2,3,4-tetrahydroquinoline-6-sulfonamide] | 3.2 µM | 94% | 
17 | Cc1ccc(NS(=O)(=O)c2ccc3c(c2)CCC(=O)N3)cc1 [Compound 21, 2-oxo-N-p-tolyl-1,2,3,4-tetrahydroquinoline-6-sulfonamide] | 4.1 µM | 110% | 
18 | COc1ccc(NS(=O)(=O)c2ccc3c(c2)CCC(=O)N3)cc1 [Compound 22, N-(4-methoxyphenyl)-2-oxo-1,2,3,4-tetrahydroquinoline-6-sulfonamide] | 36 µM | 47% | 
19 | O=C1CCc2cc(S(=O)(=O)Nc3ccc(F)cc3)ccc2N1 [Compound 23, N-(4-fluorophenyl)-2-oxo-1,2,3,4-tetrahydroquinoline-6-sulfonamide] | 10 µM | 99% | 
20 | Cc1ccccc1NS(=O)(=O)c1ccc2c(c1)CCC(=O)N2 [Compound 24, 2-oxo-N-o-tolyl-1,2,3,4-tetrahydroquinoline-6-sulfonamide] | 3.9 µM | 96% | 
21 | Cc1ccc(NS(=O)(=O)c2cc3c(cc2F)NC(=O)CC3)cc1C [Compound 31, N-(3,4-dimethylphenyl)-7-fluoro-2-oxo-1,2,3,4-tetrahydroquinoline-6-sulfonamide] |  |  | AC50 (Table 3): 0.92 µM; activation at 57 µM (Table 3): 115%
22 | Cc1ccc(NS(=O)(=O)c2cc3c(cc2N(C)C)NC(=O)CC3)cc1C [Compound 32, 7-(dimethylamino)-N-(3,4-dimethylphenyl)-2-oxo-1,2,3,4-tetrahydroquinoline-6-sulfonamide] |  |  | AC50 (Table 3): 0.52 µM; activation at 57 µM (Table 3): 106%
23 | CNc1cc2c(cc1S(=O)(=O)Nc1ccc(C)c(C)c1)CCC(=O)N2 [Compound 33, N-(3,4-dimethylphenyl)-7-(methylamino)-2-oxo-1,2,3,4-tetrahydroquinoline-6-sulfonamide] |  |  | AC50 (Table 3): 0.16 µM; activation at 57 µM (Table 3): 53%
24 | Cc1ccc(NS(=O)(=O)c2cc3c(cc2N2CCCCC2)NC(=O)CC3)cc1C [Compound 34, N-(3,4-dimethylphenyl)-2-oxo-7-(piperidin-1-yl)-1,2,3,4-tetrahydroquinoline-6-sulfonamide] |  |  | AC50 (Table 3): 15 µM; activation at 57 µM (Table 3): 57%
25 | Cc1ccc(NS(=O)(=O)c2cc3c(cc2Cl)CCC(=O)N3)cc1C [Compound 35, 6-chloro-N-(3,4-dimethylphenyl)-2-oxo-1,2,3,4-tetrahydroquinoline-7-sulfonamide] |  |  | AC50 (Table 3): 0.26 µM; activation at 57 µM (Table 3): 104%
26 | Cc1ccc(NS(=O)(=O)c2cc3c(cc2N(C)C)CCC(=O)N3)cc1C [Compound 36, 6-(dimethylamino)-N-(3,4-dimethylphenyl)-2-oxo-1,2,3,4-tetrahydroquinoline-7-sulfonamide] |  |  | AC50 (Table 3): 0.46 µM; activation at 57 µM (Table 3): 110%

Further lines, with some results ahead:

Row | AC50 (Table 2) | activation at 57 µM (Table 2) | SMILES | other results
27 | 21 µM | 60% | COc1ccccc1NS(=O)(=O)c1ccc2c(c1)CCC(=O)N2 [Compound 25, N-(2-methoxyphenyl)-2-oxo-1,2,3,4-tetrahydroquinoline-6-sulfonamide] | 
28 | 7.3 µM | 85% | O=C1CCc2cc(S(=O)(=O)Nc3ccccc3F)ccc2N1 [Compound 26, N-(2-fluorophenyl)-2-oxo-1,2,3,4-tetrahydroquinoline-6-sulfonamide] | 
29 | 2.9 µM | 87% | O=C1CCc2cc(S(=O)(=O)Nc3ccc4ccccc4c3)ccc2N1 [Compound 27, N-(naphthalen-2-yl)-2-oxo-1,2,3,4-tetrahydroquinoline-6-sulfonamide] | 
30 | 10 µM | 101% | O=C1CCc2cc(S(=O)(=O)Nc3cccc4ccccc34)ccc2N1 [Compound 28, N-(naphthalen-1-yl)-2-oxo-1,2,3,4-tetrahydroquinoline-6-sulfonamide] | 
31 | 16 µM | 86% | O=C1CCc2cc(S(=O)(=O)Nc3ccc4c(c3)OCCO4)ccc2N1 [Compound 29, N-(2,3-dihydrobenzo[b][1,4]dioxin-6-yl)-2-oxo-1,2,3,4-tetrahydroquinoline-6-sulfonamide] | 
32 | 14 µM | 25% | O=C1CCc2cc(S(=O)(=O)NCc3ccccc3)ccc2N1 [Compound 30, N-benzyl-2-oxo-1,2,3,4-tetrahydroquinoline-6-sulfonamide] | 
